Laboratory results published in ChEMBL document CHEMBL1201862, “PubChem BioAssay data set” (2004).
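Where inhibition never reached the appropriate level, the endpoint shown equals the highest concentration tested. Otherwise, values were interpolated linearly from a five-concentration, 48-hour dose response in 96-well plates. Abbreviation: GI50, concentration required for 50% inhibition of growth.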 The source made the active and inactive calls. Cut-off read from the data, not from the text of the source: active = GI50 up to about 1.1 µM and inactive = higher.

How the values were obtained:
Experiment in all cases: DTP human tumour cell line panel, 48 h
SK-MEL-5 = tested on: SK-MEL-5
RXF 393 = tested on: RXF 393
NCI-H23 = tested on: NCI-H23
UACC-257 = tested on: UACC-257
TK-10 = tested on: TK-10
COLO 205 = tested on: COLO 205
CCRF-CEM = tested on: CCRF-CEM
SK-OV-3 = tested on: SK-OV-3
UO-31 = tested on: UO-31
U-251 = tested on: U-251
HCT-15 = tested on: HCT-15
HCT-116 = tested on: HCT-116
OVCAR-5 = tested on: OVCAR-5
UACC-62 = tested on: UACC-62
NCI-H460 = tested on: NCI-H460
A549 = tested on: A549
K562 = tested on: K562
LOX IMVI = tested on: LOX IMVI
SK-MEL-2 = tested on: SK-MEL-2

Compound	GI50 (SK-MEL-5)	GI50 (RXF 393)	GI50 (NCI-H23)	GI50 (UACC-257)	GI50 (TK-10)	GI50 (COLO 205)	GI50 (CCRF-CEM)	GI50 (SK-OV-3)	GI50 (UO-31)	GI50 (U-251)	GI50 (HCT-15)	GI50 (HCT-116)	GI50 (OVCAR-5)	GI50 (UACC-62)	GI50 (NCI-H460)	GI50 (A549)	GI50 (K562)	GI50 (LOX IMVI)	GI50 (SK-MEL-2)
c1ccc(-c2cc(-c3cccs3)c(-c3cccs3)s2)cc1	33.7 µM (inactive)	16.6 µM (inactive)	19.1 µM (inactive)	56.8 µM (inactive)	32.2 µM (inactive)	47.3 µM (inactive)	23.7 µM (inactive)	> 100 µM (inactive)	26.2 µM (inactive)	78.7 µM (inactive)	22.8 µM	19.6 µM (inactive)	> 100 µM (inactive)	> 100 µM (inactive)	56.8 µM (inactive)	–	–	–	–
Cc1cccc(C)c1NC(=O)CCc1n[nH]c(=S)o1	> 100 µM (inactive)	–	> 100 µM (inactive)	> 100 µM (inactive)	> 100 µM (inactive)	30.8 µM (inactive)	> 100 µM (inactive)	> 100 µM (inactive)	> 100 µM (inactive)	> 100 µM (inactive)	78.5 µM	20.4 µM (inactive)	> 100 µM (inactive)	> 100 µM (inactive)	> 100 µM (inactive)	88.5 µM (inactive)	36.2 µM (inactive)	–	–
COc1ccc(C(=O)C(C(=O)C(=O)Nc2ccc(Cl)c(Cl)c2)c2ccc(OC)cc2)cc1 (configuration not stated)	> 100 µM (inactive)	> 100 µM (inactive)	> 100 µM (inactive)	> 100 µM (inactive)	> 100 µM (inactive)	–	–	–	> 100 µM (inactive)	> 100 µM (inactive)	> 100 µM	> 100 µM (inactive)	> 100 µM (inactive)	> 100 µM (inactive)	> 100 µM (inactive)	> 100 µM (inactive)	> 100 µM (inactive)	> 100 µM (inactive)	> 100 µM (inactive)
O=C1/C(=C/c2cccs2)NC(=S)N1CN1CCOCC1	> 100 µM (inactive)	–	> 100 µM (inactive)	29 µM (inactive)	34.1 µM (inactive)	> 100 µM (inactive)	> 100 µM (inactive)	> 100 µM (inactive)	> 100 µM (inactive)	> 100 µM (inactive)	> 100 µM	> 100 µM (inactive)	> 100 µM (inactive)	> 100 µM (inactive)	–	> 100 µM (inactive)	> 100 µM (inactive)	> 100 µM (inactive)	> 100 µM (inactive)
COc1ccc(N2C(=O)/C(=C/c3ccc(N(CCC#N)CCC#N)cc3C)N=C2/C=C\c2ccccc2)cc1	31.9 µM (inactive)	–	49.5 µM (inactive)	99.1 µM (inactive)	98.9 µM (inactive)	26.7 µM (inactive)	24 µM (inactive)	49.7 µM (inactive)	14 µM (inactive)	46.8 µM (inactive)	5.69 µM	76.6 µM (inactive)	> 100 µM (inactive)	5.24 µM (inactive)	33.4 µM (inactive)	53 µM (inactive)	40.1 µM (inactive)	28.8 µM (inactive)	> 100 µM (inactive)
COc1cc(C2(C)SCCCS2)c(I)c(OC)c1OC	> 100 µM (inactive)	–	> 100 µM (inactive)	> 100 µM (inactive)	> 100 µM (inactive)	> 100 µM (inactive)	> 100 µM (inactive)	> 100 µM (inactive)	> 100 µM (inactive)	> 100 µM (inactive)	> 100 µM	> 100 µM (inactive)	> 100 µM (inactive)	> 100 µM (inactive)	> 100 µM (inactive)	> 100 µM (inactive)	87.5 µM (inactive)	> 100 µM (inactive)	> 100 µM (inactive)
O=C1CCN2C(=Nc3cccc4cccc2c34)N1	> 100 µM (inactive)	> 100 µM (inactive)	> 100 µM (inactive)	> 100 µM (inactive)	> 100 µM (inactive)	> 100 µM (inactive)	> 100 µM (inactive)	> 100 µM (inactive)	73.8 µM (inactive)	> 100 µM (inactive)	> 100 µM	> 100 µM (inactive)	> 100 µM (inactive)	> 100 µM (inactive)	> 100 µM (inactive)	> 100 µM (inactive)	> 100 µM (inactive)	> 100 µM (inactive)	–
CCOC(=O)C(NO)C(Sc1ccccc1)c1ccc(OC)cc1 (configuration not stated)	30.7 µM (inactive)	23.9 µM (inactive)	> 100 µM (inactive)	65.9 µM (inactive)	> 100 µM (inactive)	35.3 µM (inactive)	–	> 100 µM (inactive)	68.5 µM (inactive)	> 100 µM (inactive)	68.9 µM	34.9 µM (inactive)	> 100 µM (inactive)	37.6 µM (inactive)	44.4 µM (inactive)	38.6 µM (inactive)	–	> 100 µM (inactive)	> 100 µM (inactive)
COc1cc(N)c2[nH]c3c(C)ccc(C)c3c2c1	> 100 µM (inactive)	–	> 10 µM (inactive)	> 100 µM (inactive)	> 100 µM (inactive)	> 100 µM (inactive)	> 100 µM (inactive)	–	> 100 µM (inactive)	–	> 100 µM	> 100 µM (inactive)	> 100 µM (inactive)	–	> 100 µM (inactive)	> 100 µM (inactive)	> 100 µM (inactive)	> 100 µM (inactive)	> 100 µM (inactive)
Cc1[nH]c2ccccc2c1C1=NO/C(=N\O)C(c2c(C)[nH]c3ccccc23)C1 (configuration not stated)	19.9 µM (inactive)	23.3 µM (inactive)	62.1 µM (inactive)	71.3 µM (inactive)	54 µM (inactive)	19.7 µM (inactive)	31.4 µM (inactive)	49.9 µM (inactive)	26.9 µM (inactive)	42.9 µM (inactive)	43 µM	28.3 µM (inactive)	50 µM (inactive)	19.9 µM (inactive)	23.9 µM (inactive)	38.6 µM (inactive)	33.2 µM (inactive)	–	40 µM (inactive)
CN(C)C(=S)/N=c1\ssc(=S)n1-c1ccccc1	32.7 µM (inactive)	18.7 µM (inactive)	24.2 µM (inactive)	15.7 µM (inactive)	16.9 µM (inactive)	–	0.36 µM (active)	83.9 µM (inactive)	23.3 µM (inactive)	15.8 µM (inactive)	14.7 µM	13.7 µM (inactive)	16 µM (inactive)	16 µM (inactive)	16.1 µM (inactive)	25.3 µM (inactive)	17.1 µM (inactive)	–	8.75 µM (inactive)
COC(=O)CC(C)(N[S+]([O-])c1ccc(C)cc1)c1ccccc1 (configuration not stated)	> 100 µM (inactive)	> 100 µM (inactive)	> 100 µM (inactive)	> 100 µM (inactive)	> 100 µM (inactive)	> 100 µM (inactive)	–	> 100 µM (inactive)	> 100 µM (inactive)	> 100 µM (inactive)	> 100 µM	> 100 µM (inactive)	> 100 µM (inactive)	> 100 µM (inactive)	> 100 µM (inactive)	> 100 µM (inactive)	> 100 µM (inactive)	> 100 µM (inactive)	> 100 µM (inactive)
COC(=O)C1=C(C(=O)OC)C2(C)OC1C(=O)C21CC1 (configuration not stated)	> 100 µM (inactive)	16.8 µM (inactive)	22 µM (inactive)	57.1 µM (inactive)	> 10 µM (inactive)	24.1 µM (inactive)	16.9 µM (inactive)	> 100 µM (inactive)	79.6 µM (inactive)	> 100 µM (inactive)	19.7 µM	19.8 µM (inactive)	> 100 µM (inactive)	–	24.9 µM (inactive)	> 100 µM (inactive)	19.8 µM (inactive)	18.8 µM (inactive)	> 100 µM (inactive)
CC(=O)ONC(C(=O)C(C)(C)C)C(=O)C(C)(C)C	> 100 µM (inactive)	> 100 µM (inactive)	> 100 µM (inactive)	> 100 µM (inactive)	> 100 µM (inactive)	> 100 µM (inactive)	> 100 µM (inactive)	> 100 µM (inactive)	> 100 µM (inactive)	> 100 µM (inactive)	> 100 µM	> 100 µM (inactive)	> 100 µM (inactive)	–	> 100 µM (inactive)	> 100 µM (inactive)	> 100 µM (inactive)	> 100 µM (inactive)	> 100 µM (inactive)
O=C(Cc1nc2ccccc2s1)C(=O)Nc1ccc(Cl)cc1Cl	–	–	54 µM (inactive)	> 100 µM (inactive)	> 100 µM (inactive)	> 100 µM (inactive)	–	> 100 µM (inactive)	> 100 µM (inactive)	> 100 µM (inactive)	> 100 µM	> 100 µM (inactive)	> 100 µM (inactive)	–	> 100 µM (inactive)	> 100 µM (inactive)	> 100 µM (inactive)	> 100 µM (inactive)	> 100 µM (inactive)
CC(=O)OC1CC2C(C)(C)C(=O)C=C[C@]2(C)C2CCC3(C)C(c4ccoc4)C(=O)C4OC43[C@]12C (some centres not stated)	15.7 µM (inactive)	–	15.3 µM (inactive)	15.7 µM (inactive)	36.6 µM (inactive)	18.1 µM (inactive)	20.8 µM (inactive)	13.2 µM (inactive)	20.2 µM (inactive)	18.8 µM (inactive)	14.4 µM	13 µM (inactive)	29.4 µM (inactive)	14.2 µM (inactive)	17.1 µM (inactive)	16.7 µM (inactive)	13.1 µM (inactive)	13.2 µM (inactive)	16 µM (inactive)
COc1cc([C@@H]2OCC3C(c4ccc5c(c4)OCO5)OCC32)cc(OC)c1OC (some centres not stated)	–	> 100 µM (inactive)	43.4 µM (inactive)	–	–	> 100 µM (inactive)	> 100 µM (inactive)	> 100 µM (inactive)	> 100 µM (inactive)	> 100 µM (inactive)	> 100 µM	66.7 µM (inactive)	> 100 µM (inactive)	–	> 100 µM (inactive)	71.3 µM (inactive)	54.1 µM (inactive)	> 100 µM (inactive)	> 100 µM (inactive)
